This passage reports Solubility results from patent publication US20170000715A1, “PEGYLATED 7-DEHYDROCHOLESTEROL DERIVATIVES” (HUMEDIX CO., LTD., priority 2014, published 2017).

The series is described as follows: Solubility test (saturated aqueous solution in distilled water, gravimetric). To be noted: room temperature, calculated according to Equation 1. The format is physicochemical. How it is done:
Each of compounds of Examples 1 and 5 and 7-dehydrocholesterol as a comparative material was dissolved in an amount of 100 mg in 100 ml of distilled water, followed by stirring at room temperature for 1 hour. The procedure was repeated until each compound was saturated and those being not dissolved were filtered, to prepare each saturated aqueous solution.
Then, the saturated aqueous solution was put into a weighed empty container (A), followed by weighing (B). Then, the saturated aqueous solution in the container was concentrated in reduced pressure and dried under vacuum, followed by weighing (C). The solubility of each solution was calculated according to the following Equation 1, and the results thereof are shown in Table 2.

Consider `CC(C)CCC[C@@H](C)[C@H]1CC[C@H]2C3=CC=C4C[C@@H](O)CC[C@]4(C)[C@H]3CC[C@]12C` [7-Dehydrocholesterol, 7-dehydrocholesterol], for which the Solubility result is “Insoluble”.
